Patent US20110070232A1, “Combination Therapy with an Antitumor Alkaloid” (Pharma Mar, S.A., priority 2008, published 2011)
pIC50: −log10 of the molar value. Where two headings read alike, the source gives them in different places.

Legend:
MRI-H-254 tumors = format: in vivo, mice
Experimental: Female athymic nude mice (Harlan Sprague Dawley, Madison, Wis.) were utilized for all experiments. Animals were housed in ventilated rack caging with food and water ad libitum. The mice were acclimated for at least 5 days prior to tumor implantation with tumor fragments. The Vehicle Control group contained 11 mice, groups 2-6 contained 8 mice/group, and the rest of groups contained 9 mice/group.
This cell line was grown and implanted to the animals as described in Example 11.
Tumor measurements were determined as disclosed in Example 4. […] Treatments were initiated on DPI 17.
PM00104 was provided in the form of vials of lyophilized PM00104 powder which was reconstituted with water for injection.
Tumor size measurements were recorded twice weekly from the treatment initiation until the termination of the study.
Mean, standard deviation and standard error of the mean were determined for tumor volume for all animal groups at all assessments. Student's t test was performed on tumor volumes at each measurement day, including at the end of the study, to determine whether there were any statistically significant differences between combination treatment groups and single monotherapy treatment groups.
The definition and criteria for the evaluation of potentiation and the degree of additivity for the combination therapy were the same as those disclose in Example 4.

[1] = test system: HT-29 (colon cancer) cell line; test: IC50 determination, MIT (tetrazolium) assay, 72 h (Example 18); format: cell-based, human; conditions: Homo sapiens; HT-29, 72 hours of drug exposure
Experimental: (§1) Before plating, cell cultures were trypsinized and cell number estimated using an automated flow cytometer.
(§2) Cells were harvested and seeded in 96 well microtiter plates at the appropriate cell density (5,000-10,000 cells) in 150 μL of media and incubated for 24 hours to allow the cells to attach before drug addition.
(§3) After the incubation period (72 hours), 50 μL of MIT solution was added to each microtiter well and incubated for further 8 hours at 37° C. The culture medium was then removed and 50 μl, of DMSO were added to dissolve the MIT crystals. Optical densities were read at 540 nm on spectrophotometer microplate reader.
(§4) IC50 values were calculated from an average of two to four assays for each of the test agents.

[2] = test system: LoVo (colon cancer) cell line; test: as above; format: cell-based, human; conditions: Homo sapiens, 72 hours of drug exposure
Experimental: as §1, §2, §3, §4

[3] = PM00104 0.90 IV, doxorubicin 6 IP, paclitaxel 12.5 IP mg/kg/day (G2, G5, G6, G7, G8)

Q: How did the “% T/C on day 17” value (MRI-H-254 tumors; [3]) turn out when CC(=O)O[C@H]1C(=O)[C@@]2(C)[C@H]([C@H](OC(=O)c3ccccc3)[C@]3(O)C[C@H](OC(=O)[C@H](O)[C@@H](NC(=O)c4ccccc4)c4ccccc4)C(C)=C1C3(C)C)[C@]1(OC(C)=O)CO[C@@H]1C[C@@H]2O [paclitaxel] was run?
A: 99.5%

Q: What about the “% T/C on day 20” value (MRI-H-254 tumors; [3]) of the same molecule?
A: 86.2%

Q: And the “% T/C on day 24” value (MRI-H-254 tumors; [3])?
A: 71.9%

Q: What about the “% T/C on day 27” value (MRI-H-254 tumors; [3]) of the same molecule?
A: 77.2%

Q: What about the “% T/C on day 32” value (MRI-H-254 tumors; [3]) of the same molecule?
A: 67.9%

Q: What about the “% T/C on day 35” value (MRI-H-254 tumors; [3]) of the same molecule?
A: 52.3%

Q: And the “% T/C on day 39” value (MRI-H-254 tumors; [3])?
A: 51.7%

Q: And the “% T/C on day 47” value (MRI-H-254 tumors; [3])?
A: 69.0%

Q: What about the “% Inhibition” value (MRI-H-254 tumors; day 14, PM00104 0.23, doxorubicin 6, paclitaxel 12.5 mg/kg/day) of the same molecule?
A: 0.5%

Q: And the “% Inhibition” value (MRI-H-254 tumors; day 14, PM00104 0.45, doxorubicin 6, paclitaxel 12.5 mg/kg/day)?
A: 0.5%

Q: What about the “% Inhibition” value (MRI-H-254 tumors; day 14, PM00104 0.90, paclitaxel 12.5 mg/kg/day) of the same molecule?
A: 0.5%

Q: What about the “% Inhibition” value (MRI-H-254 tumors; day 20, PM00104 0.23, doxorubicin 6, paclitaxel 12.5 mg/kg/day) of the same molecule?
A: 13.8%

Q: What about the “% Inhibition” value (MRI-H-254 tumors; day 20, PM00104 0.45, doxorubicin 6, paclitaxel 12.5 mg/kg/day) of the same molecule?
A: 13.8%

Q: What about the “% Inhibition” value (MRI-H-254 tumors; day 20, PM00104 0.90, paclitaxel 12.5 mg/kg/day) of the same molecule?
A: 13.8%

Q: What about the “% Inhibition” value (MRI-H-254 tumors; day 24, PM00104 0.23, doxorubicin 6, paclitaxel 12.5 mg/kg/day) of the same molecule?
A: 28.1%

Q: And the “% Inhibition” value (MRI-H-254 tumors; day 24, PM00104 0.45, doxorubicin 6, paclitaxel 12.5 mg/kg/day)?
A: 28.1%

Q: What about the “% Inhibition” value (MRI-H-254 tumors; day 24, PM00104 0.90, paclitaxel 12.5 mg/kg/day) of the same molecule?
A: 28.1%

Q: What about the “% Inhibition” value (MRI-H-254 tumors; day 27, PM00104 0.23, doxorubicin 6, paclitaxel 12.5 mg/kg/day) of the same molecule?
A: 22.8%

Q: What about the “% Inhibition” value (MRI-H-254 tumors; day 27, PM00104 0.45, doxorubicin 6, paclitaxel 12.5 mg/kg/day) of the same molecule?
A: 22.8%

Q: What about the “% Inhibition” value (MRI-H-254 tumors; day 27, PM00104 0.90, paclitaxel 12.5 mg/kg/day) of the same molecule?
A: 22.8%

Q: What about the “% Inhibition” value (MRI-H-254 tumors; day 32, PM00104 0.23, doxorubicin 6, paclitaxel 12.5 mg/kg/day) of the same molecule?
A: 32.1%

Q: And the “% Inhibition” value (MRI-H-254 tumors; day 32, PM00104 0.45, doxorubicin 6, paclitaxel 12.5 mg/kg/day)?
A: 32.1%

Q: What about the “% Inhibition” value (MRI-H-254 tumors; day 32, PM00104 0.90, paclitaxel 12.5 mg/kg/day) of the same molecule?
A: 32.1%

Q: What about the “% Inhibition” value (MRI-H-254 tumors; day 35, PM00104 0.23, doxorubicin 6, paclitaxel 12.5 mg/kg/day) of the same molecule?
A: 47.7%

Q: What about the “% Inhibition” value (MRI-H-254 tumors; day 35, PM00104 0.45, doxorubicin 6, paclitaxel 12.5 mg/kg/day) of the same molecule?
A: 47.7%

Q: What about the “% Inhibition” value (MRI-H-254 tumors; day 35, PM00104 0.90, paclitaxel 12.5 mg/kg/day) of the same molecule?
A: 47.7%

Q: And the “% Inhibition” value (MRI-H-254 tumors; day 39, PM00104 0.23, doxorubicin 6, paclitaxel 12.5 mg/kg/day)?
A: 48.3%

Q: And the “% Inhibition” value (MRI-H-254 tumors; day 39, PM00104 0.45, doxorubicin 6, paclitaxel 12.5 mg/kg/day)?
A: 48.3%

Q: What about the “% Inhibition” value (MRI-H-254 tumors; day 39, PM00104 0.90, paclitaxel 12.5 mg/kg/day) of the same molecule?
A: 48.3%

Q: And the “% Inhibition” value (MRI-H-254 tumors; day 47, PM00104 0.23, doxorubicin 6, paclitaxel 12.5 mg/kg/day)?
A: 31.0%

Q: And the “% Inhibition” value (MRI-H-254 tumors; day 47, PM00104 0.45, doxorubicin 6, paclitaxel 12.5 mg/kg/day)?
A: 31.0%

Q: And the “% Inhibition” value (MRI-H-254 tumors; day 47, PM00104 0.90, paclitaxel 12.5 mg/kg/day)?
A: 31.0%

Q: With O=c1[nH]cc(F)c(=O)[nH]1 [5-FU, 5-fluorouracil] as the molecule, how does the pIC50 [1] read?
A: 5.40

Q: What about the pIC50 [2] of the same molecule?
A: 5.74
